Each structure is given as a SMILES string.

The target of one experiment is T1, human TLR8 (Homo sapiens, UniProt Q9NR97).
T1 construct: host or cells: HEK-Blue human TLR8 cells (HEK293-derived reporter line)
T1 sequence (Q9NR97 27-1041): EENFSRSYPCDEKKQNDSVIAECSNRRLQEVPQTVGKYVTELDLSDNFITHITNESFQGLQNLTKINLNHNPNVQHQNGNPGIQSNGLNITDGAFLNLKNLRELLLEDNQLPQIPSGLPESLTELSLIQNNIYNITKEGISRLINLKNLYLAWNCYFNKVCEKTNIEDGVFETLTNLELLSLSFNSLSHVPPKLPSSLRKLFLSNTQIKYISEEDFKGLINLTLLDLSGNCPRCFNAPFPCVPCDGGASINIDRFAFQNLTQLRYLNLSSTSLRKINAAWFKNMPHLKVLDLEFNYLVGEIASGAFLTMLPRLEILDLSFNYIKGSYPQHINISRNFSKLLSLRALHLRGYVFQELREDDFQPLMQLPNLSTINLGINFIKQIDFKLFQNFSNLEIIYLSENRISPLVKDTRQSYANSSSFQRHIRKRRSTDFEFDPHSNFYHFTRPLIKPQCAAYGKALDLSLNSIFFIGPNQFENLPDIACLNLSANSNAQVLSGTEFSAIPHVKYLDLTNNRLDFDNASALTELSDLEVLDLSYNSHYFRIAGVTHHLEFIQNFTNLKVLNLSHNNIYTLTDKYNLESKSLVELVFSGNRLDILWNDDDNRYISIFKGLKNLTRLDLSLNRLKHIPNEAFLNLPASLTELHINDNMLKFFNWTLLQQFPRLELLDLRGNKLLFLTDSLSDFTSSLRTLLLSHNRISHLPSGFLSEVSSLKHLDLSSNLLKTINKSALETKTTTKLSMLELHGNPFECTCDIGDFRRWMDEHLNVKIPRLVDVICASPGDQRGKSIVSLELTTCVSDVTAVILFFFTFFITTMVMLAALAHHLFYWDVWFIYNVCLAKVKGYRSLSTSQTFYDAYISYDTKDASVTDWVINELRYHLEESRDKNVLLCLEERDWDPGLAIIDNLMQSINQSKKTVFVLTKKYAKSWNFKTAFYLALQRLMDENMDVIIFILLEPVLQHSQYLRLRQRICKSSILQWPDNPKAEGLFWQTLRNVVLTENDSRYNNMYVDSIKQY
Briefly: HEK-Blue human TLR8 cells NF-κB SEAP reporter assay. It is filed as cell-based. The note with it: stimulation for 20 hours, Quanti Blue 640 nm. An excerpt: (§1) For TLR8 and TLR7 activity testing, HEK-Blue human TLR8 or TLR7 cells (Invivogen, San Diego, Calif., USA) are used, respectively. These cells are designed for studying the stimulation of human TLR8 or TLR7 by monitoring the activation of NF-κB. A SEAP (secreted embryonic alkaline phosphatase) reporter gene is placed under the control of the IFN-b minimal promoter fused to five NF-κB and AP-1-binding sites. Therefore the reporter expression is regulated by the NF-κB promoter upon stimulation of human TLR8 or TLR7 for 20 hours. The cell culture supernatant SEAP reporter activity was determined using Quanti Blue kit (Invivogen, San Diego, Calif., USA) at a wavelength of 640 nm, a detection medium that turns purple/blue in the presence of alkaline phosphatase. EC50 values were determined using Activity Base analysis (ID Business Solution, Limited).
In general terms: A reporter such as luciferase makes a cellular process visible.

In the next experiment the target is T2, human TLR7 (Homo sapiens, UniProt Q9NYK1).
T2 construct: host or cells: HEK-Blue human TLR7 cells (HEK293-derived reporter line)
T2 sequence (Q9NYK1 27-1049): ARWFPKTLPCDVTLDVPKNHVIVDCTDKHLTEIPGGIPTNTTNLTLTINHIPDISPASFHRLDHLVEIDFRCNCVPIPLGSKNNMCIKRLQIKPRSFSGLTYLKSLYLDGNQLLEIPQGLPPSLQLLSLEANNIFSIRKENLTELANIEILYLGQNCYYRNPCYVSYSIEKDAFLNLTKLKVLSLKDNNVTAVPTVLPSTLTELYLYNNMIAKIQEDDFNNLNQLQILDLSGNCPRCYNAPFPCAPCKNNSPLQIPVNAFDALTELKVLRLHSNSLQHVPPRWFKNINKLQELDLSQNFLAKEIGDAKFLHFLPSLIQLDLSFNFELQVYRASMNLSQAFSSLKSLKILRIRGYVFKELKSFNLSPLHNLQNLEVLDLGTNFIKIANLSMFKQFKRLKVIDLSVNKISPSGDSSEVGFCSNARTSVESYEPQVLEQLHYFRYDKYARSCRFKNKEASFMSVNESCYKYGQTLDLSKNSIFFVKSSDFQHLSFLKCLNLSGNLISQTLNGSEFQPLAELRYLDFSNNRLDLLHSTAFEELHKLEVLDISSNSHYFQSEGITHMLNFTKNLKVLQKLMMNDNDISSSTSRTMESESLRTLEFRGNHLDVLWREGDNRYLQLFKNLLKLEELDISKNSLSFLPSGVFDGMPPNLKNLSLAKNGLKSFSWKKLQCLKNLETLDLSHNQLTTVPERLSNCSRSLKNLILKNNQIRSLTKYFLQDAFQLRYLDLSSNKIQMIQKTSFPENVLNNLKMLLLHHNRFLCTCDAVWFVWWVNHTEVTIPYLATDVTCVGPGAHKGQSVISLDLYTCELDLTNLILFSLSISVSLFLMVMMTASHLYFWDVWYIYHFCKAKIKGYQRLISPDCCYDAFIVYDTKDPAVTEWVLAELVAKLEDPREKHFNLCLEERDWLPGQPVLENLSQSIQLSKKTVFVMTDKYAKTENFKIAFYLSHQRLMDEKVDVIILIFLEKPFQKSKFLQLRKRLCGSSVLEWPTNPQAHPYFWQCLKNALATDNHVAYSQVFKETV
Description: HEK-Blue human TLR7 cells NF-κB SEAP reporter assay. The class given is cell-based. The note with it: stimulation for 20 hours, Quanti Blue 640 nm.
Excerpt: as §1

Regarding `CCCN(CCC)C(=O)C1=Cc2ccc(C(=O)NC(C)(C)C)cc2N=C(N)C1` [Example 16, 2-Amino-N8-tert-butyl-N4,N4-dipropyl-3H-1-benzazepine-4,8-dicarboxamide], the results for the EC50 at human TLR8 and on human TLR7 were 28 nM and 50000 nM, respectively.

On to `CCCN(CCC)C(=O)C1=Cc2ccc(C(=O)NC(C)(C)c3ccccc3)cc2N=C(N)C1` [Example 13, 2-Amino-N8-(1-methyl-1-phenyl-ethyl)-N4,N4-dipropyl-3H-1-benzazepine-4,8-dicarboxamide], for which the EC50 (as a rule, the concentration needed to bring the measured effect to its halfway point) on human TLR8 is 11 nM; at human TLR7, 14000 nM.

For the compound `CCCN(CCC)C(=O)C1=Cc2ccc(C(=O)NCCc3cccnc3)cc2N=C(N)C1` [Example 20, 2-Amino-N4,N4-dipropyl-N8-[2-(3-pyridyl)ethyl]-3H-1-benzazepine-4,8-dicarboxamide], the EC50 was 30 nM at human TLR8 and above 100000 nM at human TLR7.

Turning to `CCCN(CCC)C(=O)C1=Cc2ccc(C(=O)NC3CCCCC3)cc2N=C(N)C1` [Example 4, 2-Amino-N8-cyclohexyl-N4,N4-dipropyl-3H-1-benzazepine-4,8-dicarboxamide], the EC50 worked out at 4 nM at human TLR8 and 34000 nM on human TLR7.

For the compound `CCCN(CCC)C(=O)C1=Cc2ccc(C(=O)NC3CN(c4ccccc4)C3)cc2N=C(N)C1` [Example 3, 2-Amino-N8-(1-phenylazetidin-3-yl)-N4,N4-dipropyl-3H-1-benzazepine-4,8-dicarboxamide], the EC50 was 4 nM on human TLR8 and above 100000 nM at human TLR7.

As for `CCCN(CCC)C(=O)C1=Cc2ccc(C(=O)NC(c3ccccc3)c3ccccc3)cc2N=C(N)C1` [Example 10, 2-Amino-N8-benzhydryl-N4,N4-dipropyl-3H-1-benzazepine-4,8-dicarboxamide], the results for the EC50 on human TLR8 and at human TLR7 were 11 nM and above 100000 nM, respectively.

Consider `CCCN(CCC)C(=O)C1=Cc2ccc(C(=O)NC3CCC3)cc2N=C(N)C1` [Example 17, 2-Amino-N8-cyclobutyl-N4,N4-dipropyl-3H-1-benzazepine-4,8-dicarboxamide], for which the EC50 at human TLR8 was 25 nM; on human TLR7 it was above 100000 nM.

As to `CCCN(CCC)C(=O)C1=Cc2ccc(C(=O)NC3CCCN(c4ccccc4)C3)cc2N=C(N)C1` (stereo not shown) [Example 23, 2-Amino-N8-(1-phenyl-3-piperidyl)-N4,N4-dipropyl-3H-1-benzazepine-4,8-dicarboxamide], the EC50 was 10 nM on human TLR8 and above 100000 nM at human TLR7.

(Values after US10544102B2, “Benzazepine dicarboxamide compounds with secondary amide function” (Hoffmann-La Roche Inc., priority 2017, dated 2020).)
